In US10906946B2, “Thrombin inhibitors” (priority 2015, dated 2021):
Values joined by “and” are separate entries in the source; they are usually repeats but may differ in a detail not shown here. Equal entries are not always repeated. Where two headings read alike, the source gives them in different places. Peptide text beside a SMILES is read from it.

Target: T1, human α-thrombin (Homo sapiens, UniProt P00734)
T1 construct: residues in the termini of the light chain; purchased Chemo-Sero-Therapeutic Research Institute (Kaketsuken, Japan), as a gift, not bought
Assay: Thrombin amidolytic activity assay with chromogenic substrate S2238
Assay type: biochemical
Conditions: for Hill slope of thrombin amidolytic inhibition: 0 min pre-incubation where stated; for Hill Slope: Table 2
Experimental: Thrombin amidolytic activity assays for all peptides were performed in 96-wells microtiter plates in 50 mM Tris buffer (pH 7.4) containing 100 mM NaCl and 1 mg/ml bovine serum albumin. […] The rates of formation of p-nitroaniline were followed by measuring the absorbance at 405 nm for 10 min with a Tecan InfinitePro M200 microplate reader from Tecan (Männedorf, Switzerland). Dose-response curves were fitted using the GraphPad Prizm software (San Diego, Calif., USA) to calculate IC50 values and Hill coefficients. To measure the inhibitory constants, different concentrations of S2238 were used and the residual velocities were determined using the Morrison's tight binding equation. Inhibition of thrombin fibrinogenolytic activity of peptides were tested by measuring absorbance at 650 nm using a Sunrise microplate reader from Tecan (Männedorf, Switzerland) as described previously [Koh C Y, et al., J Biol Chem 282: 29101-13 (2007)]. The selectivity of avathrin was examined against 13 serine proteases (FIG. 5). Effects of avathrin on the amidolytic activities of these serine proteases were determined using respective chromogenic substrates. […] Avathrin (150 μM) was incubated with thrombin (5 μM), in 50 mM Tris buffer (pH 7.4) containing 150 mM NaCl and 1 mg/ml BSA. After different incubation times, reactions were quenched with 1% TFA (pH 1.8) and loaded onto a Jupiter Proteo column (4 μm, 90 Å, 100×1.0 mm) attached to a Dionex nano-HPLC system from Thermo Fisher Scientific (Waltham, Mass., USA) and eluted using an acetonitrile gradient with 0.05% TFA and 99.95% MilliQ water as eluent A and 0.05% TFA, 19.95% MilliQ water and 80% ACN as eluent B. Masses of all peaks were measured to identify cleavage products, which were subsequently quantified by integrating the peaks and calculating the area under the curves. To measure the effect of different pre-incubation times on the thrombin inhibitory activity, amidolytic assays were performed for various incubation times (up to 36 h).

[1] = IC50 of inhibition of thrombin amidolytic activity, thrombin 0.81 nM, S2238 100 μM, without pre-incubation (0 min) where stated
[2] = inhibitory constant Ki for thrombin, thrombin 0.81 nM, various S2238 concentrations

Row | Compound | fold drop in potency compared with avathrin | Hill slope of thrombin amidolytic inhibition | IC50 [1] [nM] | Hill Slope | Ki [2] [nM] | also measured
1 | CC[C@H](C)[C@H](NC(=O)[C@H](CCC(=O)O)NC(=O)[C@H](CC(=O)O)NC(=O)[C@H](CC(=O)O)NC(=O)[C@@H]1CCCN1C(=O)[C@@H](NC(=O)[C@H](CCC(=O)O)NC(=O)[C@H](CCC(=O)O)NC(=O)[C@H](Cc1ccccc1)NC(=O)[C@H](CC(=O)O)NC(=O)CNC(=O)[C@@H]1CCCN1C(=O)[C@@H]1CCCN1C(=O)[C@H](C)NC(=O)[C@@H](NC(=O)[C@H](CO)NC(=O)[C@H](Cc1ccc(O)cc1)NC(=O)[C@H](CCSC)NC(=O)[C@H](CCCCN)NC(=O)[C@@H]1CCCN1C(=O)[C@@H](NC(=O)[C@H](C)NC(=O)[C@H](CCCNC(=N)N)NC(=O)[C@@H](NC(=O)[C@H](C)NC(=O)[C@H](CCC(=O)O)NC(=O)[C@H](CC(=O)O)NC(=O)[C@@H](N)CO)C(C)C)[C@@H](C)CC)[C@@H](C)O)[C@@H](C)CC)C(=O)N[C@@H](CCC(=O)O)C(=O)N[C@@H](CCC(=O)O)C(=O)O [UV012] (H-SDEAVRAIPKMYSTAPPGDFEEIPDDEIEE-OH; N-terminus and C-terminus assumed) |  |  |  |  |  | fold drop in affinity for thrombin compared to ultravariegin: 5 fold
2 | CC[C@H](C)[C@H](NC(=O)[C@H](CCCCN)NC(=O)[C@@H]1CCCN1C(=O)[C@@H](NC(=O)[C@H](C)NC(=O)[C@@H](NC(=O)[C@H](CC(=O)O)NC(=O)[C@H](Cc1c[nH]cn1)NC(=O)CNC(=O)[C@H](CC(=O)O)NC(=O)[C@@H](N)CO)[C@@H](C)O)C(C)C)C(=O)N[C@@H](CO)C(=O)N[C@@H](CCCCN)C(=O)N[C@@H](CCC(N)=O)C(=O)NCC(=O)N[C@@H](CC(C)C)C(=O)NCC(=O)NCC(=O)N[C@@H](CC(=O)O)C(=O)N[C@@H](Cc1ccccc1)C(=O)N[C@@H](CCC(=O)O)C(=O)N[C@@H](CCC(=O)O)C(=O)N[C@H](C(=O)N1CCC[C@H]1C(=O)N[C@@H](CO)C(=O)N[C@@H](CC(=O)O)C(=O)N[C@@H](CCC(=O)O)C(=O)N[C@H](C(=O)N[C@H](C(=O)N[C@@H](CCC(=O)O)C(=O)O)[C@@H](C)CC)[C@@H](C)CC)[C@@H](C)CC [G2D, Q5D] (H-SDGHDTAVPKISKQGLGGDFEEIPSDEIIE-OH) | < 2 fold | 0.71±0.03 | 13 ± 1.23 | 0.71 ± 0.03 |  | 
3 | CC[C@H](C)[C@H](NC(=O)[C@H](C)NC(=O)[C@H](CCCNC(=N)N)NC(=O)[C@@H](NC(=O)[C@H](C)NC(=O)[C@H](CCC(=O)O)NC(=O)[C@H](CC(=O)O)NC(=O)[C@@H](N)CO)C(C)C)C(=O)N1CCC[C@H]1C(=O)N[C@@H](CCCCN)C(=O)N[C@@H](CCSC)C(=O)N[C@@H](Cc1ccc(O)cc1)C(=O)N[C@@H](CO)C(=O)N[C@H](C(=O)N[C@@H](C)C(=O)N1CCC[C@H]1C(=O)N1CCC[C@H]1C(=O)NCC(=O)N[C@@H](CC(=O)O)C(=O)N[C@@H](Cc1ccccc1)C(=O)N[C@@H](CCC(=O)O)C(=O)N[C@@H](CCC(=O)O)C(=O)N[C@H](C(=O)N1CCC[C@H]1C(=O)N[C@@H](CCC(=O)O)C(=O)N[C@@H](CCC(=O)O)C(=O)N[C@@H](Cc1ccc(O)cc1)C(=O)N[C@@H](CC(C)C)C(=O)N[C@@H](CC(=O)O)C(=O)N[C@@H](CC(=O)O)C(=O)N[C@@H](CCC(=O)O)C(=O)N[C@@H](CO)C(=O)O)[C@@H](C)CC)[C@@H](C)O [UV005] |  |  |  |  | 0.016 ± 0.00305 | fold drop in affinity for thrombin compared to ultravariegin: around 3.6 fold; IC50 (IC50 of inhibition of thrombin amidolytic activity, FIG. 17 legend): 0.91 ± 0.47 nM
4 | SDVAPADYESDEGDNDGGHDGSEVAKPKMPRGNGGGGDFEEIPEVE [Rhipicephalus sanguineus] |  |  |  |  |  | IC50 (Table 4, members of variegin family, read-out: IC50): 42.4 ± 0.62 nM; Ki (thrombin 0.81 nM, various S2238 concentrations, read-out: inhibitory constant Ki for thrombin): 8.79 ± 0.65 nM
5 | CC[C@H](C)[C@H](NC(=O)[C@H](C)NC(=O)[C@H](CC(=O)O)NC(=O)[C@H](CC(=O)O)NC(=O)[C@@H]1CCCN1C(=O)[C@@H](NC(=O)[C@H](CCC(=O)O)NC(=O)[C@H](CCC(=O)O)NC(=O)[C@H](Cc1ccccc1)NC(=O)[C@H](CC(=O)O)NC(=O)CNC(=O)[C@@H]1CCCN1C(=O)[C@@H]1CCCN1C(=O)[C@H](C)NC(=O)[C@@H](NC(=O)[C@H](CO)NC(=O)[C@H](Cc1ccc(O)cc1)NC(=O)[C@@H](N)CCSC)[C@@H](C)O)[C@@H](C)CC)C(=O)N[C@@H](CCC(=O)O)C(=O)N[C@@H](CCC(=O)O)C(=O)O [UV011] (H-MYSTAPPGDFEEIPDDAIEE-OH) |  |  | 1.66 ± 0.77 |  | 1.39 ± 0.23 | fold better Ki than avathrin C-terminal cleavage product IS20: around 4 fold; fold better Ki than variegin C-terminal cleavage product MH22: around 10 fold
6 | CC[C@H](C)[C@H](NC(=O)[C@H](CC(=O)O)NC(=O)[C@H](CCC(=O)O)NC(=O)[C@H](Cc1ccccc1)NC(=O)[C@H](CC(=O)O)NC(=O)CNC(=O)CNC(=O)[C@H](CC(C)C)NC(=O)CNC(=O)[C@H](CCCCN)NC(=O)[C@H](CCCNC(=N)N)NC(=O)[C@H](CO)NC(=O)[C@H](CCSC)NC(=O)[C@H](CCCCN)NC(=O)[C@@H]1CCCN1C(=O)[C@@H](NC(=O)[C@H](C)NC(=O)[C@@H](NC(=O)[C@H](Cc1c[nH]cn1)NC(=O)[C@H](CC(=O)O)NC(=O)[C@H](CCC(=O)O)NC(=O)CNC(=O)[C@@H](N)CO)[C@@H](C)O)C(C)C)C(=O)N1CCC[C@H]1C(=O)N1CCC[C@H]1C(=O)N[C@@H](CCC(=O)O)C(=O)N[C@@H](C)C(=O)N[C@@H](Cc1ccc(O)cc1)C(=O)N[C@@H](CCC(=O)O)C(=O)N[C@@H](CCCNC(=N)N)C(=O)N[C@@H](C)C(=O)N[C@@H](CC(C)C)C(=O)N[C@@H](CCC(=O)O)C(=O)N[C@@H](C)C(=O)N[C@@H](CCCNC(=N)N)C(=O)O [Amblyomma americanum] (H-SGEDHTAVPKMSRKGLGGDFEDIPPEAYERALEAR-OH) |  |  |  |  |  | Ki (Affinity (nM), Table 4, Ki values): 1.63 ± 0.61 nM; IC50 (IC50 (nM), Table 4, members of variegin family): 14.29 ± 0.12 nM
7 | CC[C@H](C)[C@H](NC(=O)[C@H](CCCCN)NC(=O)[C@@H]1CCCN1C(=O)[C@@H](NC(=O)[C@H](C)NC(=O)[C@@H](NC(=O)[C@H](CCC(N)=O)NC(=O)[C@H](Cc1c[nH]cn1)NC(=O)CNC(=O)CNC(=O)[C@@H](N)CO)[C@@H](C)O)C(C)C)C(=O)N[C@@H](Cc1c[nH]cn1)C(=O)N[C@@H](CCCCN)C(=O)N[C@@H](CCC(N)=O)C(=O)NCC(=O)N[C@@H](CC(C)C)C(=O)NCC(=O)NCC(=O)N[C@@H](CC(=O)O)C(=O)N[C@@H](Cc1ccccc1)C(=O)N[C@@H](CCC(=O)O)C(=O)N[C@@H](CCC(=O)O)C(=O)N[C@H](C(=O)N1CCC[C@H]1C(=O)N[C@@H](CO)C(=O)N[C@@H](CC(=O)O)C(=O)N[C@@H](CCC(=O)O)C(=O)N[C@H](C(=O)N[C@H](C(=O)N[C@@H](CCC(=O)O)C(=O)O)[C@@H](C)CC)[C@@H](C)CC)[C@@H](C)CC [Peptide S12H] (H-SGGHQTAVPKIHKQGLGGDFEEIPSDEIIE-OH; N-terminus and C-terminus assumed) | 2 fold | 0.88±0.02 | 18.5 ± 0.32 | 0.88 ± 0.02 | 1.23 ± 0.04 | 
8 | CC[C@H](C)[C@H](NC(=O)[C@H](C)NC(=O)[C@H](CC(=O)O)NC(=O)[C@H](CC(=O)O)NC(=O)[C@@H]1CCCN1C(=O)[C@@H](NC(=O)[C@H](CCC(=O)O)NC(=O)[C@H](CCC(=O)O)NC(=O)[C@H](Cc1ccccc1)NC(=O)[C@H](CC(=O)O)NC(=O)CNC(=O)[C@@H]1CCCN1C(=O)[C@@H]1CCCN1C(=O)[C@H](C)NC(=O)[C@@H](NC(=O)[C@H](CCCCN)NC(=O)[C@H](Cc1c[nH]cn1)NC(=O)[C@H](CCSC)NC(=O)[C@H](CCCCN)NC(=O)[C@@H]1CCCN1C(=O)[C@H](CCC(=O)O)NC(=O)[C@H](C)NC(=O)[C@H](CCCNC(=N)N)NC(=O)[C@@H](NC(=O)[C@H](C)NC(=O)[C@H](CCC(=O)O)NC(=O)[C@H](CC(=O)O)NC(=O)[C@@H](N)CO)C(C)C)[C@@H](C)O)[C@@H](C)CC)C(=O)N[C@@H](CCC(=O)O)C(=O)N[C@@H](CCC(=O)O)C(=O)O [UV004] (H-SDEAVRAEPKMHKTAPPGDFEEIPDDAIEE-OH) |  |  | 0.46 ± 0.08 |  | 0.00455 ± 0.00037 | 
9 | CC[C@H](C)[C@H](NC(=O)[C@H](CCCCN)NC(=O)[C@@H]1CCCN1C(=O)[C@@H](NC(=O)[C@H](C)NC(=O)[C@@H](NC(=O)[C@H](CCC(N)=O)NC(=O)[C@H](Cc1c[nH]cn1)NC(=O)CNC(=O)CNC(=O)[C@@H](N)CO)[C@@H](C)O)C(C)C)C(=O)N[C@@H](C)C(=O)N[C@@H](CCCCN)C(=O)N[C@@H](CCC(N)=O)C(=O)NCC(=O)N[C@@H](CC(C)C)C(=O)NCC(=O)NCC(=O)N[C@@H](CC(=O)O)C(=O)N[C@@H](Cc1ccccc1)C(=O)N[C@@H](CCC(=O)O)C(=O)N[C@@H](CCC(=O)O)C(=O)N[C@H](C(=O)N1CCC[C@H]1C(=O)N[C@@H](CO)C(=O)N[C@@H](CC(=O)O)C(=O)N[C@@H](CCC(=O)O)C(=O)N[C@H](C(=O)N[C@H](C(=O)N[C@@H](CCC(=O)O)C(=O)O)[C@@H](C)CC)[C@@H](C)CC)[C@@H](C)CC [Peptide S12A] (H-SGGHQTAVPKIAKQGLGGDFEEIPSDEIIE-OH; N-terminus and C-terminus assumed) | > 10 fold and 20 fold | 0.62±0.01 | 101 ± 1.32 | 0.62 ± 0.01 | 6.07 ± 0.18 | 
